Drawing on PubChem BioAssay (NCI), this text covers GI50 and TGI for seven compounds.

Some test systems named below: OVCAR-4 ovarian; RXF 393 renal; SN12C renal; UACC-62 melanoma; CCRF-CEM leukemia; COLO 205 colon; SK-MEL-5 melanoma; SK-MEL-2 melanoma; HCT-15 colon; HOP-92 NSCLC.
What all share (assay): DTP human tumour cell line panel, 48 h

SMILES strings stand for the structures.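 The compound was tested at five concentrations on cells cultured in 96-well plates, with a 48-hour exposure period. GI50 is the concentration that inhibits growth by half. The concentration for full growth arrest is given as TGI.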

As usually defined, the GI50 is the concentration at which growth is held to half of that of the control. By TGI is commonly meant the concentration at which net growth stops. Turning to `CN(C)CCNc1c2c(c(NCCN(C)C)c3c(CO)c[nH]c13)C(=O)c1ccccc1C2=O`, the GI50 with OVCAR-4 ovarian is 2.58 µM; with RXF 393 renal it was 3.83 µM; in the assay on SN12C renal, 1.25 µM; in the assay on UACC-62 melanoma, 7.64 µM; in the assay on CCRF-CEM leukemia, 3.07 µM; with COLO 205 colon, 2.74 µM. Moreover, the GI50 was 1.81 µM in the assay on SK-MEL-5 melanoma, 11.2 µM in the assay with SK-MEL-2 melanoma, 1.96 µM in the assay with HCT-15 colon and 2.89 µM with HOP-92 NSCLC. For the same compound, the TGI was 11.5 µM with OVCAR-4 ovarian; 12.5 µM in the assay on RXF 393 renal; 8.33 µM in the assay with SN12C renal; 21.7 µM in the assay on UACC-62 melanoma; greater than 32.1 µM in the assay on CCRF-CEM leukemia; greater than 37.5 µM with COLO 205 colon. Besides, the total growth inhibition concentration (TGI) with SK-MEL-5 melanoma was 4.67 µM; in the assay with SK-MEL-2 melanoma, 23.2 µM; in the assay on HCT-15 colon, 10.6 µM; with HOP-92 NSCLC it was 13.1 µM.
In the case of `C=C(C)[C@@H]1CC[C@]2(C)[C@H](CC=C3[C@@H]4[C@H](C)[C@@H](C)CC[C@]4(CO)CC[C@]32C)[C@@]1(C)CCCN`, the GI50 in the assay on OVCAR-4 ovarian was 0.86 µM; in the assay with RXF 393 renal, 0.826 µM; in the assay on SN12C renal, 0.839 µM; in the assay with UACC-62 melanoma, 5.82 µM; with CCRF-CEM leukemia it was 1.31 µM; with COLO 205 colon, 0.899 µM. Further, the GI50 was 0.91 µM in the assay with SK-MEL-5 melanoma, 1.73 µM in the assay on SK-MEL-2 melanoma, 0.839 µM in the assay with HCT-15 colon and 1.04 µM in the assay on HOP-92 NSCLC. The TGI with OVCAR-4 ovarian stood at 2.85 µM; in the assay on RXF 393 renal, 1.59 µM; in the assay on SN12C renal it was 1.67 µM; in the assay with UACC-62 melanoma it was 12.6 µM; with CCRF-CEM leukemia, 5.26 µM; in the assay on COLO 205 colon it was 1.94 µM. Further, the TGI turned out to be 1.65 µM with SK-MEL-5 melanoma, 5.04 µM in the assay on SK-MEL-2 melanoma, 1.76 µM in the assay with HCT-15 colon and 3.46 µM in the assay with HOP-92 NSCLC.
As for `CC1(C)N=C(N)N=C(N)N1c1ccc(OCCCCNC(=O)c2ccc(S(=O)(=O)F)cc2)c(Cl)c1`, the GI50 in the assay on OVCAR-4 ovarian was 93.7 µM; in the assay on RXF 393 renal it was 8.99 µM; with SN12C renal, 4.47 µM; in the assay with UACC-62 melanoma, 4.27 µM; in the assay on CCRF-CEM leukemia, 5.65 µM; with COLO 205 colon it was 68.4 µM. Besides, the GI50 is 5.19 µM with SK-MEL-5 melanoma, 77.2 µM in the assay with SK-MEL-2 melanoma, 23.3 µM in the assay on HCT-15 colon and greater than 100 µM in the assay on HOP-92 NSCLC. For the same compound, the TGI in the assay with OVCAR-4 ovarian, in the assay on RXF 393 renal, with SN12C renal, in the assay on UACC-62 melanoma, in the assay with CCRF-CEM leukemia and in the assay with COLO 205 colon was greater than 100 µM throughout. For the same compound, the TGI in the assay on SK-MEL-5 melanoma, in the assay with SK-MEL-2 melanoma, in the assay with HCT-15 colon and with HOP-92 NSCLC was greater than 100 µM in each case.
`COc1cc(N=Nc2cccc(S(N)(=O)=O)c2)c2ccccc2c1N`: the total growth inhibition concentration (TGI) with OVCAR-4 ovarian is 27.8 µM; with RXF 393 renal, 33.6 µM; in the assay on SN12C renal it was 26.1 µM; in the assay with UACC-62 melanoma, 4.19 µM; in the assay on CCRF-CEM leukemia, 38.6 µM; in the assay on COLO 205 colon, 26.5 µM. Besides, the TGI in the assay on SK-MEL-5 melanoma was 3.3 µM; in the assay on SK-MEL-2 melanoma, 5.13 µM; in the assay with HCT-15 colon, 49.5 µM; in the assay on HOP-92 NSCLC it was greater than 58 µM.
For `CCCNc1cccc(-n2ncc3c(N/N=C/c4ccncc4)ncnc32)c1`, the GI50 in the assay with OVCAR-4 ovarian was greater than 9.88 µM; in the assay on RXF 393 renal, 1.07 µM; with SN12C renal, greater than 25 µM; in the assay on UACC-62 melanoma it was greater than 7.76 µM; with CCRF-CEM leukemia, greater than 25 µM; in the assay with COLO 205 colon it was greater than 25 µM. For the same compound, the GI50 in the assay on SK-MEL-5 melanoma was 1.64 µM; in the assay on SK-MEL-2 melanoma, 1.49 µM; in the assay on HCT-15 colon it was 1.68 µM; in the assay on HOP-92 NSCLC, 9.32 µM. In addition, the TGI with OVCAR-4 ovarian, in the assay with RXF 393 renal, in the assay on SN12C renal, with UACC-62 melanoma, in the assay with CCRF-CEM leukemia and in the assay on COLO 205 colon was greater than 25 µM in each case. The TGI in the assay with SK-MEL-5 melanoma, in the assay on SK-MEL-2 melanoma, with HCT-15 colon and in the assay on HOP-92 NSCLC was greater than 25 µM throughout.
As to `O=C(Nc1ccc(-c2ccnc(Nc3ccc(N4CCOCC4)cc3)n2)cc1)C1CCCN1` (stereo not given), the GI50 with OVCAR-4 ovarian was 12.2 µM; in the assay with RXF 393 renal, 2.23 µM; in the assay with SN12C renal, 4.47 µM; in the assay on UACC-62 melanoma it was 6.63 µM; with CCRF-CEM leukemia, 2.36 µM; with COLO 205 colon, 5.25 µM. Also, the GI50 with SK-MEL-5 melanoma was 3.31 µM; with SK-MEL-2 melanoma, 15.2 µM; in the assay with HCT-15 colon, 0.639 µM; in the assay on HOP-92 NSCLC, 4.1 µM. In addition, the concentration for total growth inhibition (TGI) came to 43.1 µM with OVCAR-4 ovarian; 9.36 µM in the assay with RXF 393 renal; 44 µM in the assay on SN12C renal; 20.8 µM with UACC-62 melanoma; 39.9 µM in the assay on CCRF-CEM leukemia; 20.5 µM with COLO 205 colon. The total growth inhibition concentration (TGI) in the assay with SK-MEL-5 melanoma worked out at 18.9 µM; in the assay with SK-MEL-2 melanoma, 35.8 µM; in the assay on HCT-15 colon, 18.9 µM; with HOP-92 NSCLC, 24.4 µM.
For `N#Cc1ccc2c(c1)C(=O)c1c-2n(CCCN=[N+]=[N-])c(=O)c2cc([N+](=O)[O-])ccc12`, the GI50 was greater than 50 µM in the assay on OVCAR-4 ovarian; greater than 50 µM in the assay on RXF 393 renal; 47.2 µM in the assay with SN12C renal; 3.6 µM in the assay on UACC-62 melanoma; 1.82 µM in the assay with CCRF-CEM leukemia; greater than 50 µM in the assay with COLO 205 colon. Further, the GI50 was greater than 50 µM in the assay with SK-MEL-5 melanoma, greater than 50 µM in the assay with SK-MEL-2 melanoma, greater than 50 µM with HCT-15 colon and 5.55 µM with HOP-92 NSCLC. In addition, the TGI in the assay on OVCAR-4 ovarian, in the assay on RXF 393 renal, in the assay with SN12C renal, in the assay on UACC-62 melanoma, in the assay on CCRF-CEM leukemia and with COLO 205 colon was greater than 50 µM in each case. The concentration for total growth inhibition (TGI) in the assay with SK-MEL-5 melanoma is greater than 50 µM; in the assay with SK-MEL-2 melanoma, greater than 50 µM; in the assay on HCT-15 colon, greater than 50 µM; in the assay on HOP-92 NSCLC, 40.1 µM.
